Test results: patent publication US11453681B2, “Substituted eneoxindoles and uses thereof” (Gilead Sciences, Inc., priority 2019, dated 2022)

What follows are compounds tested against human HPK1 (MAP4K1) (Homo sapiens (Human), UniProt Q92918) (assay: HPK1 IC50 Assay). Conditions: recombinant HPK1 kinase domain 0.15 nM, synthetic peptide substrate STK S1, 3 hours at 25° C., time-resolved fluorescence energy transfer; geometric mean of multiple experiments.
Assay type: biochemical
Description: The enzymatic activity of human HPK1 (MAP4K1) was monitored in a biochemical assay in the presence or absence of compounds and using a synthetic peptide substrate. An increase in phosphorylation of the peptide by HPK1 was indicative of its kinase activity.
Recombinant HPK1 kinase domain produced via baculovirus infection of insect cells was obtained from Proteros (Proteros Biostructures #PR-0322) and was pre-activated in the presence of 2 mM ATP (Sigma-Aldrich, cat #GE27-2056-01) and 2 mM magnesium chloride for 16 hours at 4° C. The protein reaction mixture was then loaded to a desalting column (Thermo Fisher Scientific, Cat #89889) to remove excess ATP. HPK1 was eluted with buffer containing 20 mM Tris (2-Amino-2-(hydroxymethyl)propane-1,3-diol) pH 8.0, 150 mM NaCl, 2 mM dithiothreitol and 5% glycerol, and was frozen at −80° C. for later use. HPK1 dual phosphorylation was confirmed by mass spectrometry.
Ten nanoliters of test compounds dissolved in DMSO at various concentrations were dispensed into a 384-well ProxiPlate (PerkinElmer #6008289). Five microliters of a solution of recombinant HPK1 diluted in HPK1 kinase assay buffer (50 mM BES [N,N-Bis(2-hydroxyethyl)-2-aminoethanesulfonic acid], pH 7.0; 10 mM magnesium chloride; 0.01% Triton X-100; 1 mM dithiothreitol; 0.01% bovine serum albumin; 0.1 mM sodium orthovanadate) was added to the compound-containing plate and was incubated for 15 minutes at 25° C. Five microliters of a mixture of ATP (Sigma-Aldrich #A6559) and peptide substrate STK Si (Cisbio #61ST1BLC) diluted in HPK1 kinase assay buffer was then added to start the reaction. Final concentrations were 0.15 nM for HPK1, […], and 1 […]. The reaction mixture was incubated at 25° C. for 3 hours and was stopped with the addition of 10 μl of an EDTA (Ethylenediaminetetraacetic acid)-containing detection buffer (Cisbio #62SDBRDF) supplemented with Europium cryptate-labeled anti-phospho-serine/threonine antibodies (Cisbio #62ST1PEJ) and XL665-labeled streptavidin (Cisbio #610SAXLG). The mixture was incubated for 16 hours at room temperature and peptide phosphorylation was measured by time-resolved fluorescence energy transfer (665 nm/620 nm) on an Envision plate reader (PerkinElmer).
Data in Table 1 were normalized based on positive (staurosporine) and negative (DMSO) controls. Least squares curve fittings were performed using a four-parameter variable slope nonlinear regression model. IC50 is defined as the concentration of compound required to inhibit 50% of maximum phosphorylation. IC50 values from multiple experiments were averaged by geometric mean and the standard deviation was calculated.

Chain of human HPK1 (MAP4K1) (Q92918 17-274): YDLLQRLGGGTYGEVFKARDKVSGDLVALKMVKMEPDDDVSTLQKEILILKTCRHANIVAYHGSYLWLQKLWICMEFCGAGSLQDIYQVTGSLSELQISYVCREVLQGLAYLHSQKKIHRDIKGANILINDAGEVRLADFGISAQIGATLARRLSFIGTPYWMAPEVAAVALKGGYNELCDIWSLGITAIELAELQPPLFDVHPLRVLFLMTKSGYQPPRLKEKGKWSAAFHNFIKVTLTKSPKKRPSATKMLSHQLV

Compound | IC50
Cc1cc2c(cc1-c1cnc3c(c1)NCCO3)/C(=C/c1cc3cnccc3[nH]1)C(=O)N2 [Compound C41, (Z)-3-((1H-pyrrolo[3,2-c]pyridin-2-yl)methylene)-5-(2,3-dihydro-1H-pyrido[2,3-b][1,4]oxazin-7-yl)-6-methylindolin-2-one] | 5.73 nM
Cc1c(-c2cc(F)c3c(c2)/C(=C/c2cc4ccccc4[nH]2)C(=O)N3)cnc2c1NCCO2 [Compound C53, (Z)-3-((1H-indol-2-yl)methylene)-7-fluoro-5-(8-methyl-2,3-dihydro-1H-pyrido[2,3-b][1,4]oxazin-7-yl)indolin-2-one] | 0.16 nM
Cc1c(-c2cc(F)c3c(c2C)/C(=C/c2cc4ccncc4[nH]2)C(=O)N3)cnc2c1NCCO2 [Compound C63, (Z)-3-((1H-pyrrolo[2,3-c]pyridin-2-yl)methylene)-7-fluoro-4-methyl-5-(8-methyl-2,3-dihydro-1H-pyrido[2,3-b][1,4]oxazin-7-yl)indolin-2-one] | 0.41 nM
Cc1c[nH]c(/C=C2\C(=O)Nc3c(F)cc(-c4cnc5c(c4C)NCCO5)c(C)c32)c1 [Compound C13, (Z)-7-fluoro-4-methyl-3-((4-methyl-H-pyrrol-2-yl)methylene)-5-(8-methyl-2,3-dihydro-1H-pyrido[2,3-b][1,4]oxazin-7-yl)indolin-2-one] | 0.51 nM
CCN(CC)CCNC(=O)c1c(C)[nH]c(/C=C2\C(=O)Nc3cc(F)c(-c4cnc5c(c4C)NCCO5)cc32)c1C [Compound C1, (Z)—N-(2-(diethylamino)ethyl)-5-((6-fluoro-5-(8-methyl-2,3-dihydro-1H-pyrido[2,3-b][1,4]oxazin-7-yl)-2-oxoindolin-3-ylidene)methyl)-2,4-dimethyl-1H-pyrrole-3-carboxamide] | 0.05 nM
Cc1ncc(/C=C2\C(=O)Nc3c(F)cc(-c4cnc5c(c4C)NCCO5)c(C)c32)[nH]1 [Compound C4, (Z)-7-fluoro-4-methyl-3-((2-methyl-1H-imidazol-5-yl)methylene)-5-(8-methyl-2,3-dihydro-1H-pyrido[2,3-b][1,4]oxazin-7-yl)indolin-2-one] | 0.15 nM
Cc1c(-c2cc3c(cc2F)NC(=O)/C3=C\c2cc3cnccc3[nH]2)cnc2c1NCCO2 [Compound C49, (Z)-3-((1H-pyrrolo[3,2-c]pyridin-2-yl)methylene)-6-fluoro-5-(8-methyl-2,3-dihydro-1H-pyrido[2,3-b][1,4]oxazin-7-yl)indolin-2-one] | 0.16 nM
O=C1Nc2ccc(-c3cnc4c(c3)NCCO4)cc2/C1=C/c1ncc[nH]1 [Compound C71, (Z)-3-((1H-imidazol-2-yl)methylene)-5-(2,3-dihydro-1H-pyrido[2,3-b][1,4]oxazin-7-yl)indolin-2-one] | 66.7 nM
Cc1c(-c2cc(F)c3c(c2)/C(=C/c2cc4ncccc4[nH]2)C(=O)N3)cnc2c1NCCO2 [Compound C46, (Z)-3-((1H-pyrrolo[3,2-b]pyridin-2-yl)methylene)-7-fluoro-5-(8-methyl-2,3-dihydro-1H-pyrido[2,3-b][1,4]oxazin-7-yl)indolin-2-one] | 0.05 nM
Cc1c(-c2cc(F)c3c(c2C)/C(=C/c2cc4cnccc4[nH]2)C(=O)N3)cnc2c1NCCO2 [Compound C54, (Z)-3-((1H-pyrrolo[3,2-c]pyridin-2-yl)methylene)-7-fluoro-4-methyl-5-(8-methyl-2,3-dihydro-1H-pyrido[2,3-b][1,4]oxazin-7-yl)indolin-2-one] | 0.27 nM
Cc1c(-c2cc3c(cc2Cl)NC(=O)/C3=C\c2cc3ccccc3[nH]2)cnc2c1NCCO2 [Compound C50, (Z)-3-((1H-indol-2-yl)methylene)-6-chloro-5-(8-methyl-2,3-dihydro-1H-pyrido[2,3-b][1,4]oxazin-7-yl)indolin-2-one] | 0.19 nM

Further lines, results first:

IC50 | Compound
0.77 nM | Cc1c(-c2ccc3c(c2)/C(=C/c2ncc[nH]2)C(=O)N3)cnc2c1NCCO2 [Compound C31, (Z)-3-((1H-imidazol-2-yl)methylene)-5-(8-methyl-2,3-dihydro-1H-pyrido[2,3-b][1,4]oxazin-7-yl)indolin-2-one]
0.19 nM | Cc1ncc(/C=C2\C(=O)Nc3cc(C)c(-c4cnc5c(c4C)NCCO5)cc32)[nH]1 [Compound C3, (Z)-6-methyl-3-((2-methyl-1H-imidazol-5-yl)methylene)-5-(8-methyl-2,3-dihydro-1H-pyrido[2,3-b][1,4]oxazin-7-yl)indolin-2-one]
0.32 nM | Cc1n[nH]cc1/C=C1\C(=O)Nc2ccc(-c3cnc4c(c3C)NCCO4)cc21 [Compound C68, (Z)-3-((3-methyl-H-pyrazol-4-yl)methylene)-5-(8-methyl-2,3-dihydro-1H-pyrido[2,3-b][1,4]oxazin-7-yl)indolin-2-one]
0.97 nM | Cc1c(-c2ccc3c(c2)/C(=C/c2ccn[nH]2)C(=O)N3)cnc2c1NCCO2 [Compound C30, (Z)-3-((1H-pyrazol-5-yl)methylene)-5-(8-methyl-2,3-dihydro-1H-pyrido[2,3-b][1,4]oxazin-7-yl)indolin-2-one]
0.06 nM | Cc1c(-c2ccc3c(c2)/C(=C/c2cc4cnccc4[nH]2)C(=O)N3)cnc2c1NCCO2 [Compound C60, (Z)-3-((1H-pyrrolo[3,2-c]pyridin-2-yl)methylene)-5-(8-methyl-2,3-dihydro-1H-pyrido[2,3-b][1,4]oxazin-7-yl)indolin-2-one]
2.61 nM | Cc1c[nH]c(/C=C2\C(=O)Nc3c(Cl)cc(-c4cnc5c(c4C)NCCO5)cc32)c1 [Compound C22, (Z)-7-chloro-3-((4-methyl-1H-pyrrol-2-yl)methylene)-5-(8-methyl-2,3-dihydro-1H-pyrido[2,3-b][1,4]oxazin-7-yl)indolin-2-one]
0.28 nM | Cc1c(-c2ccc3c(c2)/C(=C/c2nc4ccccc4[nH]2)C(=O)N3)cnc2c1NCCO2 [Compound C59, (Z)-3-((1H-benzo[d]imidazol-2-yl)methylene)-5-(8-methyl-2,3-dihydro-1H-pyrido[2,3-b][1,4]oxazin-7-yl)indolin-2-one]
1.88 nM | Cc1c(-c2ccc3c(c2)C(=Cc2cccs2)C(=O)N3)cnc2c1NCCO2 (racemic) [Compound C19, (E and Z)-5-(8-methyl-2,3-dihydro-1H-pyrido[2,3-b][1,4]oxazin-7-yl)-3-(thiophen-2-ylmethylene)indolin-2-one]
0.05 nM | Cc1c(-c2ccc3c(c2)/C(=C/c2cc4ccccc4[nH]2)C(=O)N3)cnc2c1NCCO2 [Compound C62, (Z)-3-((1H-indol-2-yl)methylene)-5-(8-methyl-2,3-dihydro-1H-pyrido[2,3-b][1,4]oxazin-7-yl)indolin-2-one]
1.98 nM | Cc1c(-c2cc(Cl)c3c(c2)/C(=C/c2ccc[nH]2)C(=O)N3)cnc2c1NCCO2 [Compound C23, (Z)-3-((1H-pyrrol-2-yl)methylene)-7-chloro-5-(8-methyl-2,3-dihydro-1H-pyrido[2,3-b][1,4]oxazin-7-yl)indolin-2-one]
3.02 nM | Cc1c(-c2ccc3c(c2)/C(=C/c2ccns2)C(=O)N3)cnc2c1NCCO2 [Compound C18, (Z)-3-(isothiazol-5-ylmethylene)-5-(8-methyl-2,3-dihydro-1H-pyrido[2,3-b][1,4]oxazin-7-yl)indolin-2-one]
2.13 nM | Cc1c(-c2ccc3c(c2)/C(=C/c2ncc[nH]2)C(=O)N3)cnc2c1NCC1(CC1)O2 [Compound C72, (Z)-3-((1H-imidazol-2-yl)methylene)-5-(8′-methyl-1′,2′-dihydrospiro[cyclopropane-1,3′-pyrido[2,3-b][1,4]oxazin]-7′-yl)indolin-2-one]
0.26 nM | Cc1c(-c2ccc3c(c2)/C(=C/c2cnc[nH]2)C(=O)N3)cnc2c1NCCO2 [Compound C32, (Z)-3-((1H-imidazol-5-yl)methylene)-5-(8-methyl-2,3-dihydro-1H-pyrido[2,3-b][1,4]oxazin-7-yl)indolin-2-one]
4.33 nM | Cc1cc(-c2cnc3c(c2C)NCCO3)cc2c1NC(=O)/C2=C\c1cn[nH]c1 [Compound C67, (Z)-3-((1H-pyrazol-4-yl)methylene)-7-methyl-5-(8-methyl-2,3-dihydro-1H-pyrido[2,3-b][1,4]oxazin-7-yl)indolin-2-one]
6.9 nM | Cc1c(-c2cc(Cl)c3c(c2)/C(=C/c2cn[nH]c2)C(=O)N3)cnc2c1NCCO2 [Compound C66, (Z)-3-((1H-pyrazol-4-yl)methylene)-7-chloro-5-(8-methyl-2,3-dihydro-1H-pyrido[2,3-b][1,4]oxazin-7-yl)indolin-2-one]
